Source: patent US12036312B2, “Non-aqueous topical compositions comprising a halogenated salicylanilide” (priority 2016, dated 2024)
In brackets after ≈: the same amount, converted by molar mass.

Tested on: S. aureus
Test: MIC assay according to CLSI criteria, Example 2, S. aureus strains
Type: cell-based, Staphylococcus aureus
Settings: Staphylococcus aureus
Excerpt: Chosen for its relevance regarding bacterial skin infections, the methicillin-resistant S. aureus (MRSA) 01 strain was used as the primary test microorganism. This strain is a community-acquired MRSA clinical isolate of USA 300 type, from a skin abscess.
Two-hundred-four other MRSA and methicillin-sensitive S. aureus strains, and 4 Streptococcus pyogenes strains, were also included in the study. These covered fusidic acid- and mupirocin-resistant strains, these two types of resistance being of clinical relevance.
Strains were conserved in Luria Bertani (LB) Broth (S. aureus) or Brain Heart Infusion (BHI) (S. pyogenes) supplemented with glycerol 15% (v/v) at −80° C., and reactivated by isolation on LB (S. aureus) or BHI (S. pyogenes) agar plates. Strains were cultivated in Mueller Hinton (MH) Broth-cation adjusted (S. aureus) or BHI (S. pyogenes). All strains were cultivated aerobically (microaerobically for S. pyogenes strains) at 37° C.
Bacterial cultures were stopped in their exponential growth phase and plates were inoculated with the approximate concentration of 5×10^5 cells per well. Plates were incubated at 37° C. for 18 hours (S. aureus) or 24 hours (S. pyogenes). Optical density at a wavelength of 600 nm was measured at the end of the incubation time.

`C=C[C@]1(C)C[C@@H](OC(=O)CS[C@@H]2C[C@H]3CC[C@@H](C2)N3C)[C@]2(C)[C@H](C)CC[C@]3(CCC(=O)[C@H]32)[C@@H](C)[C@@H]1O` [Retapamulin, retapamulin] was tested, and the MIC (ATCC29213, strain ATCC 29213) was 0.03 µg/mL (≈ 0.0579 µM), the MIC (MRSA, strain MRSA 01) was 0.06 µg/mL (≈ 0.116 µM) and the MIC (MRSA, strain MRSA 02) was 0.06 µg/mL (≈ 0.116 µM). It also gave an MIC (MRSA, strain MRSA 03) of 0.03 µg/mL (≈ 0.0579 µM), an MIC (MRSA, strain MRSA 04) of 0.06 µg/mL (≈ 0.116 µM) and an MIC (MRSA, strain MRSA 05) of 0.03 µg/mL (≈ 0.0579 µM). The MIC (MRSA, strain MRSA 06) was 0.03 µg/mL (≈ 0.0579 µM), the MIC (MRSA, strain MRSA 07) was 0.06 µg/mL (≈ 0.116 µM) and the MIC (MRSA, strain MRSA 08) was 0.03 µg/mL (≈ 0.0579 µM). The MIC (MRSA, strain MRSA 09) was 0.06 µg/mL (≈ 0.116 µM), the MIC (MRSA, strain MRSA 10) was 0.06 µg/mL (≈ 0.116 µM) and the MIC (MRSA, strain MRSA 11) was 0.06 µg/mL (≈ 0.116 µM). The MIC (MRSA, strain MRSA 12) was 0.03 µg/mL (≈ 0.0579 µM), the MIC (MRSA, strain MRSA 13) was 0.06 µg/mL (≈ 0.116 µM) and the MIC (MRSA, strain MRSA 14) was 0.03 µg/mL (≈ 0.0579 µM). It also gave an MIC (MRSA, strain MRSA 15) of 0.06 µg/mL (≈ 0.116 µM), an MIC (MRSA, strain MRSA 16) of 0.06 µg/mL (≈ 0.116 µM) and an MIC (MRSA, strain MRSA 17) of 0.03 µg/mL (≈ 0.0579 µM). The MIC (MRSA, strain MRSA 18) was 0.06 µg/mL (≈ 0.116 µM), the MIC (MRSA, strain MRSA 19) was 0.03 µg/mL (≈ 0.0579 µM) and the MIC (MRSA, strain MRSA 20) was 0.06 µg/mL (≈ 0.116 µM). For the same compound, the MIC (MRSA, strain MRSA 21) was 0.125 µg/mL (≈ 0.241 µM), the MIC (MRSA, strain MRSA 22) was 0.06 µg/mL (≈ 0.116 µM) and the MIC (MRSA, strain MRSA 23) was 0.06 µg/mL (≈ 0.116 µM). For the same compound, the MIC (MRSA, strain MRSA 24) was 0.06 µg/mL (≈ 0.116 µM), the MIC (MRSA, strain MRSA 25) was 0.06 µg/mL (≈ 0.116 µM) and the MIC (MRSA, strain MRSA 26) was 0.06 µg/mL (≈ 0.116 µM). For the same compound, the MIC (MRSA, strain MRSA 27) was 0.06 µg/mL (≈ 0.116 µM), the MIC (MRSA, strain MRSA 27b) was 0.02 µg/mL (≈ 0.0386 µM) and the MIC (MRSA, strain MRSA 28) was 0.03 µg/mL (≈ 0.0579 µM). The MIC (MRSA, strain MRSA 29) was 0.06 µg/mL (≈ 0.116 µM), the MIC (MRSA, strain MRSA 30) was 0.03 µg/mL (≈ 0.0579 µM) and the MIC (MRSA, strain MRSA 31) was 16 µg/mL (≈ 30.9 µM). It also gave an MIC (MRSA, strain MRSA 32) of 0.06 µg/mL (≈ 0.116 µM), an MIC (MRSA, strain MRSA 33) of 0.06 µg/mL (≈ 0.116 µM) and an MIC (MRSA, strain MRSA 34) of 0.06 µg/mL (≈ 0.116 µM). For the same compound, the MIC (MRSA, strain MRSA 35) was 0.03 µg/mL (≈ 0.0579 µM), the MIC (MRSA, strain MRSA 36) was 0.06 µg/mL (≈ 0.116 µM) and the MIC (MRSA, strain MRSA 37) was 0.06 µg/mL (≈ 0.116 µM). It also gave an MIC (MRSA, strain MRSA 38) of 0.06 µg/mL (≈ 0.116 µM), an MIC (MRSA, strain MRSA 39) of 0.06 µg/mL (≈ 0.116 µM) and an MIC (MRSA, strain MRSA 40) of 0.03 µg/mL (≈ 0.0579 µM). For the same compound, the MIC (MRSA, strain MRSA 41) was 0.02 µg/mL (≈ 0.0386 µM), the MIC (MRSA, strain MRSA 42) was 0.06 µg/mL (≈ 0.116 µM) and the MIC (MRSA, strain MRSA 43) was 0.06 µg/mL (≈ 0.116 µM). It also gave an MIC (MRSA, strain MRSA 44) of 0.02 µg/mL (≈ 0.0386 µM), an MIC (MRSA, strain MRSA 45) of 0.02 µg/mL (≈ 0.0386 µM) and an MIC (MRSA, strain MRSA 46) of 0.02 µg/mL (≈ 0.0386 µM). For the same compound, the MIC (MRSA, strain MRSA 47) was 0.02 µg/mL (≈ 0.0386 µM), the MIC (MRSA, strain MRSA 48) was 0.02 µg/mL (≈ 0.0386 µM) and the MIC (MRSA, strain MRSA 49) was 0.02 µg/mL (≈ 0.0386 µM). The MIC (MRSA, strain MRSA 50) was 0.02 µg/mL (≈ 0.0386 µM), the MIC (MRSA, strain MRSA 51) was 0.03 µg/mL (≈ 0.0579 µM) and the MIC (MRSA, strain MRSA 52) was 0.02 µg/mL (≈ 0.0386 µM). For the same compound, the MIC (MRSA, strain MRSA 53) was 0.03 µg/mL (≈ 0.0579 µM), the MIC (MRSA, strain MRSA 54) was 0.03 µg/mL (≈ 0.0579 µM) and the MIC (MRSA, strain MRSA 55) was 0.02 µg/mL (≈ 0.0386 µM). The MIC (MRSA, strain MRSA 56) was < 0.01 µg/mL, the MIC (MRSA, strain MRSA 57) was 0.02 µg/mL (≈ 0.0386 µM) and the MIC (MRSA, strain MRSA 58) was 0.02 µg/mL (≈ 0.0386 µM). It also gave an MIC (MRSA, strain MRSA 59) of 0.02 µg/mL (≈ 0.0386 µM), an MIC (MRSA, strain MRSA 60) of 0.02 µg/mL (≈ 0.0386 µM) and an MIC (MRSA, strain MRSA 61) of 0.02 µg/mL (≈ 0.0386 µM). The MIC (MRSA, strain MRSA 62) was 0.02 µg/mL (≈ 0.0386 µM), the MIC (MRSA, strain MRSA 63) was 0.02 µg/mL (≈ 0.0386 µM) and the MIC (MRSA, strain MRSA 64) was 0.02 µg/mL (≈ 0.0386 µM). For the same compound, the MIC (MRSA, strain MRSA 65) was 0.02 µg/mL (≈ 0.0386 µM), the MIC (MRSA, strain MRSA 66) was 0.02 µg/mL (≈ 0.0386 µM) and the MIC (MRSA, strain MRSA 67) was 0.02 µg/mL (≈ 0.0386 µM). The MIC (MRSA, strain MRSA 68) was 0.02 µg/mL (≈ 0.0386 µM), the MIC (MRSA, strain MRSA 69) was < 0.01 µg/mL and the MIC (MRSA, strain MRSA 70) was 0.02 µg/mL (≈ 0.0386 µM). For the same compound, the MIC (MRSA, strain MRSA 71) was < 0.01 µg/mL, the MIC (MRSA, strain MRSA 72) was 0.03 µg/mL (≈ 0.0579 µM) and the MIC (MRSA, strain MRSA 73) was 0.03 µg/mL (≈ 0.0579 µM). For the same compound, the MIC (MRSA, strain MRSA 74) was 0.03 µg/mL (≈ 0.0579 µM), the MIC (MRSA, strain MRSA 75) was 0.03 µg/mL (≈ 0.0579 µM) and the MIC (MRSA, strain MRSA 76) was 0.03 µg/mL (≈ 0.0579 µM). The MIC (MRSA, strain MRSA 77) was 0.03 µg/mL (≈ 0.0579 µM), the MIC (MRSA, strain MRSA 78) was 0.03 µg/mL (≈ 0.0579 µM) and the MIC (MRSA, strain MRSA 79) was < 0.01 µg/mL. It also gave an MIC (MRSA, strain MRSA 80) of 0.02 µg/mL (≈ 0.0386 µM), an MIC (MRSA, strain MRSA 81) of 0.03 µg/mL (≈ 0.0579 µM) and an MIC (MRSA, strain MRSA 82) of 0.03 µg/mL (≈ 0.0579 µM). The MIC (MRSA, strain MRSA 83) was 0.03 µg/mL (≈ 0.0579 µM), the MIC (MRSA, strain MRSA 84) was 0.03 µg/mL (≈ 0.0579 µM) and the MIC (MRSA, strain MRSA 85) was 0.03 µg/mL (≈ 0.0579 µM). For the same compound, the MIC (MRSA, strain MRSA 86) was 0.03 µg/mL (≈ 0.0579 µM), the MIC (MRSA, strain MRSA 87) was 0.02 µg/mL (≈ 0.0386 µM) and the MIC (MRSA, strain MRSA 88) was 0.03 µg/mL (≈ 0.0579 µM). For the same compound, the MIC (MRSA, strain MRSA 89) was 0.02 µg/mL (≈ 0.0386 µM), the MIC (MRSA, strain MRSA 90) was 0.06 µg/mL (≈ 0.116 µM) and the MIC (MRSA, strain MRSA 91) was 0.06 µg/mL (≈ 0.116 µM). For the same compound, the MIC (MRSA, strain MRSA 92) was 0.06 µg/mL (≈ 0.116 µM), the MIC (MRSA, strain MRSA 93) was 0.02 µg/mL (≈ 0.0386 µM) and the MIC (MRSA, strain MRSA 94) was 0.03 µg/mL (≈ 0.0579 µM). For the same compound, the MIC (MRSA, strain MRSA 95) was 0.03 µg/mL (≈ 0.0579 µM), the MIC (MRSA, strain MRSA 96) was 0.03 µg/mL (≈ 0.0579 µM) and the MIC (MRSA, strain MRSA 97) was 0.03 µg/mL (≈ 0.0579 µM). For the same compound, the MIC (MRSA, strain MRSA 98) was 0.03 µg/mL (≈ 0.0579 µM), the MIC (MRSA, strain MRSA 99) was 0.03 µg/mL (≈ 0.0579 µM) and the MIC (MRSA, strain MRSA 100) was 1 µg/mL (≈ 1.93 µM). It also gave an MIC (MRSA, strain MRSA 101) of 0.03 µg/mL (≈ 0.0579 µM).
